Source: patent US20230085307A1, “PYRIDAZINONE COMPOUND AND HERBICIDE” (NISSAN CHEMICAL CORPORATION, priority 2019, published 2023)

How the values were obtained:
late watergrass = assay: Test Example 1: herbicidal activity, application before weed generation under submerged conditions (Table 16, symbol A); type: in vivo, late watergrass (Echinochloa oryzicola); conditions: for Herbicidal effect, A: late watergrass: amount of applied herbicide 320 g/ha
From the text: (§1) [Test Example 1] Herbicidal Activity Test by Application before Weed Generation under Submerged Conditions After alluvial soil was placed into 1/10000 are of Wagner pot, water was poured and mixed to form a submerged condition having a water depth of 4 cm. Seeds of late watergrass, Japanese bulrush, and oval-leafed pondweed were sowed in a mixed manner in the aforementioned pot, and then 2.5 leaf stage rice plant seedlings were transplanted thereto. On the day of sowing seeds, the emulsion agent of the compound of the present invention prepared according to Formulation Example 2 was diluted with water so as to achieve a predetermined herbicide amount, and the diluted emulsion agent was applied to the surface of the water. The pot was placed in a greenhouse at 25° C. to 30° C. for growth of the plants. Three weeks after the herbicide application, the effect of the herbicide on each plant was evaluated according to the following criteria. Evaluation Criteria 5: Herbicidal rate of 90% or more (almost completely withered) 4: Herbicidal rate of 70% or more and less than 90% 3: Herbicidal rate of 40% or more and less than 70% 2: Herbicidal rate of 20% or more and less than 40% 1: Herbicidal rate of 5% or more and less than 20% 0: Herbicidal rate of 5% or less (almost no effect)

Japanese bulrush = assay: Test Example 1: herbicidal activity, application before weed generation under submerged conditions (Table 16, symbol B); type: in vivo, Japanese bulrush (Schoenoplectus juncoides); conditions: for Herbicidal effect, B: Japanese bulrush: amount of applied herbicide 320 g/ha
From the text: as §1

oval-leafed pondweed = assay: Test Example 1: herbicidal activity, application before weed generation under submerged conditions (Table 16, symbol C); type: in vivo, oval-leafed pondweed (Monochoria vaginalis); conditions: for Herbicidal effect, C: oval-leafed pondweed: amount of applied herbicide 320 g/ha
From the text: as §1

barnyard grass [1] = assay: Test Example 3: herbicidal effect by foliage application, Wagner pot (Table 18, symbol H); type: in vivo, barnyard grass (Echinochloa crus-galli)
Summary of the method: (§2)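 Plants were sown in alluvial soil held under 0.1–0.5 cm standing water and grown 14 days in a greenhouse at 25–30 °C. An emulsifiable formulation, water-diluted to the set dose, was then sprayed onto the foliage, and effects were scored three weeks later using previously defined criteria.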

Chinese sprangletop = assay: Test Example 3: herbicidal effect by foliage application, Wagner pot (Table 18, symbol D); type: in vivo, chinese sprangletop (Leptochloa chinensis)
Summary of the method: as §2

rice flat sedge = assay: Test Example 3: herbicidal effect by foliage application, Wagner pot (Table 18, symbol E); type: in vivo, rice flat sedge (Cyperus iria)
Summary of the method: as §2

southern crabgrass = assay: Test Example 5: herbicidal effect by foliage application, plastic box (Table 20, symbol F); type: in vivo, southern crabgrass (Digitaria ciliaris); conditions: foliage application; for herbicidal effect on southern crabgrass (F): 320 g/ha, three weeks after application
Summary of the method: (§3)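 Foliar spray test: emulsion formulation diluted in water to a set application rate, sprayed onto 14-day-old plants raised in diluvial soil at 25° C to 30° C under glass. Both herbicidal effect and crop effect rated visually three weeks later.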

green foxtail = assay: Test Example 5: herbicidal effect by foliage application, plastic box (Table 20, symbol G); type: in vivo, green foxtail (Setaria viridis); conditions: foliage application; for herbicidal effect on green foxtail (G): 320 g/ha, three weeks after application
Summary of the method: as §3

barnyard grass [2] = assay: Test Example 5: herbicidal effect by foliage application, plastic box (Table 20, symbol H); type: in vivo, barnyard grass (Echinochloa crus-galli); conditions: foliage application; for herbicidal effect on barnyard grass (H): 320 g/ha, three weeks after application
Summary of the method: as §3

wild oat = assay: Test Example 5: herbicidal effect by foliage application, plastic box (Table 20, symbol I); type: in vivo, wild oat (Avena fatua); conditions: foliage application; for herbicidal effect on wild oat (I): 320 g/ha, three weeks after application
Summary of the method: as §3

blackgrass = assay: Test Example 5: herbicidal effect by foliage application, plastic box (Table 20, symbol J); type: in vivo, blackgrass (Alopecurus myosuroides); conditions: foliage application; for herbicidal effect on blackgrass (J): 320 g/ha, three weeks after application
Summary of the method: as §3

Italian ryegrass = assay: Test Example 5: herbicidal effect by foliage application, plastic box (Table 20, symbol K); type: in vivo, Italian ryegrass (Lolium multiflorum); conditions: foliage application; for herbicidal effect on Italian ryegrass (K): 320 g/ha, three weeks after application
Summary of the method: as §3

windgrass = assay: Test Example 5: herbicidal effect by foliage application, plastic box (Table 20, symbol L); type: in vivo, windgrass (Apera spica-venti); conditions: foliage application; for herbicidal effect on windgrass (L): 320 g/ha, three weeks after application
Summary of the method: as §3

velvetleaf = assay: Test Example 5: herbicidal effect by foliage application, plastic box (Table 20, symbol M); type: in vivo, velvetleaf (Abutilon theophrasti); conditions: foliage application; for herbicidal effect on velvetleaf (M): 320 g/ha, three weeks after application
Summary of the method: as §3

lambsquarters = assay: Test Example 5: herbicidal effect by foliage application, plastic box (Table 20, symbol O); type: in vivo, lambsquarters (Chenopodium album); conditions: foliage application; for herbicidal effect on lambsquarters (O): 320 g/ha, three weeks after application
Summary of the method: as §3

persian speedwell = assay: Test Example 5: herbicidal effect by foliage application, plastic box (Table 20, symbol R); type: in vivo, Persian speedwell (Veronica persica); conditions: foliage application; for herbicidal effect on persian speedwell (R): 320 g/ha, three weeks after application
Summary of the method: as §3

[3] = 80 g/ha, 3 weeks after application
[4] = amount of applied herbicide 320 g/ha

| Compound | Herbicidal effect on A: late watergrass (grade 0-5) (late watergrass; 320 g/ha applied herbicide) | Herbicidal effect on B: Japanese bulrush (grade 0-5) (Japanese bulrush; 320 g/ha applied herbicide) | Herbicidal effect on C: oval-leafed pondweed (grade 0-5) (oval-leafed pondweed; 320 g/ha applied herbicide) | herbicidal effect on H: barnyard grass (barnyard grass [1]; [4]) | herbicidal effect on D: Chinese sprangletop (Chinese sprangletop; [4]) | herbicidal effect on E: rice flat sedge (rice flat sedge; [4]) | Herbicidal effect, A: late watergrass (late watergrass) | Herbicidal effect, B: Japanese bulrush (Japanese bulrush) | Herbicidal effect, C: oval-leafed pondweed (oval-leafed pondweed) | herbicidal effect on southern crabgrass (F) (southern crabgrass) | herbicidal effect on green foxtail (G) (green foxtail) | herbicidal effect on barnyard grass (H) (barnyard grass [2]) | herbicidal effect on wild oat (I) (wild oat) | herbicidal effect on blackgrass (J) (blackgrass) | herbicidal effect on Italian ryegrass (K) (Italian ryegrass) | herbicidal effect on windgrass (L) (windgrass) | herbicidal effect on velvetleaf (M) (velvetleaf) | herbicidal effect on lambsquarters (O) (lambsquarters) | herbicidal effect on persian speedwell (R) (persian speedwell) | other results |
| --- | --- | --- | --- | --- | --- | --- | --- | --- | --- | --- | --- | --- | --- | --- | --- | --- | --- | --- | --- | --- |
| CC#CCOc1ccc(-c2sc3ccccc3c2-c2c(O)c(C)nn(C)c2=O)cc1 [1-219] | – | – | – | – | – | – | – | – | – | – | – | – | – | – | – | – | – | – | – | Herbicidal effect on A: late watergrass (grade 0-5) (late watergrass; 80 g/ha applied herbicide): 5 (Herbicidal rate of 90% or more (almost completely withered)); Herbicidal effect on B: Japanese bulrush (grade 0-5) (Japanese bulrush; 80 g/ha applied herbicide): 3 (Herbicidal rate of 40% or more and less than 70%); Herbicidal effect on C: oval-leafed pondweed (grade 0-5) (oval-leafed pondweed; 80 g/ha applied herbicide): 3 (Herbicidal rate of 40% or more and less than 70%); herbicidal effect on H (barnyard grass), rating 0-5 (barnyard grass [1]; 80 g/ha): 5 (Herbicidal rate of 90% or more (almost completely withered)); herbicidal effect on D (Chinese sprangletop), rating 0-5 (Chinese sprangletop; 80 g/ha): 5 (Herbicidal rate of 90% or more (almost completely withered)); herbicidal effect on E (rice flat sedge), rating 0-5 (rice flat sedge; 80 g/ha): 3 (Herbicidal rate of 40% or more and less than 70%); effect on southern crabgrass (F) (southern crabgrass; [3]): 3 (Herbicidal rate of 40% or more and less than 70%); effect on green foxtail (G) (green foxtail; [3]): 5 (Herbicidal rate of 90% or more (almost completely withered)); effect on barnyard grass (H) (barnyard grass [2]; [3]): 4 (Herbicidal rate of 70% or more and less than 90%); effect on wild oat (I) (wild oat; [3]): 1 (Herbicidal rate of 5% or more and less than 20%); effect on blackgrass (J) (blackgrass; [3]): 4 (Herbicidal rate of 70% or more and less than 90%); effect on Italian ryegrass (K) (Italian ryegrass; [3]): 5 (Herbicidal rate of 90% or more (almost completely withered)); effect on windgrass (L) (windgrass; [3]): 0 (Herbicidal rate of 5% or less (almost no effect)); effect on velvetleaf (M) (velvetleaf; [3]): 4 (Herbicidal rate of 70% or more and less than 90%); effect on lambsquarters (O) (lambsquarters; [3]): 5 (Herbicidal rate of 90% or more (almost completely withered)); effect on persian speedwell (R) (persian speedwell; [3]): 5 (Herbicidal rate of 90% or more (almost completely withered)) |
| CC[S+]([O-])Cc1ccc(-c2sc3ccc(F)cc3c2-c2c(O)c(C)nn(C)c2=O)cc1 (stereo not drawn) [2-333] | 2 (Herbicidal rate of 20% or more and less than 40%) | 0 (Herbicidal rate of 5% or less (almost no effect)) | 0 (Herbicidal rate of 5% or less (almost no effect)) | 5 (Herbicidal rate of 90% or more (almost completely withered)) | 2 (Herbicidal rate of 20% or more and less than 40%) | 5 (Herbicidal rate of 90% or more (almost completely withered)) | – | – | – | – | – | – | – | – | – | – | – | – | – | – |
| CCS(=O)(=O)Cc1ccc(-c2sc3ccc(F)cc3c2-c2c(O)c(C)nn(C)c2=O)cc1 [2-335] | 3 (Herbicidal rate of 40% or more and less than 70%) | 0 (Herbicidal rate of 5% or less (almost no effect)) | 0 (Herbicidal rate of 5% or less (almost no effect)) | 5 (Herbicidal rate of 90% or more (almost completely withered)) | 3 (Herbicidal rate of 40% or more and less than 70%) | 5 (Herbicidal rate of 90% or more (almost completely withered)) | – | – | – | – | – | – | – | – | – | – | – | – | – | – |
| CCCC(=O)Oc1c(C)nn(C)c(=O)c1-c1c(-c2ccc(C(F)(F)F)cc2)sc2cc(C)c(C)cc12 [5-097] | – | – | – | – | – | – | 3 (Herbicidal rate of 40% or more and less than 70%) | 0 (Herbicidal rate of 5% or less (almost no effect)) | 0 (Herbicidal rate of 5% or less (almost no effect)) | 0 (Herbicidal rate of 5% or less (almost no effect)) | 0 (Herbicidal rate of 5% or less (almost no effect)) | 0 (Herbicidal rate of 5% or less (almost no effect)) | 0 (Herbicidal rate of 5% or less (almost no effect)) | 0 (Herbicidal rate of 5% or less (almost no effect)) | 0 (Herbicidal rate of 5% or less (almost no effect)) | 0 (Herbicidal rate of 5% or less (almost no effect)) | 0 (Herbicidal rate of 5% or less (almost no effect)) | 0 (Herbicidal rate of 5% or less (almost no effect)) | 0 (Herbicidal rate of 5% or less (almost no effect)) | herbicidal effect on barnyard grass (H) (barnyard grass [1]; 320 g/ha): 4 (Herbicidal rate of 70% or more and less than 90%); herbicidal effect on Chinese sprangletop (D) (Chinese sprangletop; 320 g/ha): 2 (Herbicidal rate of 20% or more and less than 40%); herbicidal effect on rice flat sedge (E) (rice flat sedge; 320 g/ha): 1 (Herbicidal rate of 5% or more and less than 20%) |
| Cc1cc2sc(-c3ccc(OC(F)F)cc3)c(-c3c(O)c(C)nn(C)c3=O)c2cc1C [5-098] | – | – | – | – | – | – | 3 (Herbicidal rate of 40% or more and less than 70%) | 0 (Herbicidal rate of 5% or less (almost no effect)) | 0 (Herbicidal rate of 5% or less (almost no effect)) | 0 (Herbicidal rate of 5% or less (almost no effect)) | 0 (Herbicidal rate of 5% or less (almost no effect)) | 0 (Herbicidal rate of 5% or less (almost no effect)) | 0 (Herbicidal rate of 5% or less (almost no effect)) | 0 (Herbicidal rate of 5% or less (almost no effect)) | 0 (Herbicidal rate of 5% or less (almost no effect)) | 0 (Herbicidal rate of 5% or less (almost no effect)) | 0 (Herbicidal rate of 5% or less (almost no effect)) | 0 (Herbicidal rate of 5% or less (almost no effect)) | 5 (Herbicidal rate of 90% or more (almost completely withered)) | – |
| Cc1nn(C)c(=O)c(-c2c(-c3ccc(OC(F)(F)F)cc3)oc3ccc(F)cc23)c1O [9-033] | – | – | – | – | – | – | 2 (Herbicidal rate of 20% or more and less than 40%) | 0 (Herbicidal rate of 5% or less (almost no effect)) | 0 (Herbicidal rate of 5% or less (almost no effect)) | – | – | – | – | – | – | – | – | – | – | Herbicidal effect on H (barnyard grass), foliage application (barnyard grass [1]; [4]): 4 (Herbicidal rate of 70% or more and less than 90%); Herbicidal effect on D (Chinese sprangletop), foliage application (Chinese sprangletop; [4]): 3 (Herbicidal rate of 40% or more and less than 70%); Herbicidal effect on E (rice flat sedge), foliage application (rice flat sedge; [4]): 5 (Herbicidal rate of 90% or more (almost completely withered)) |
